Legend:
RCC4/VHL = assay: XTT cell viability assay, RCC4 with VHL-reintroduced (RCC4/VHL) versus RCC4, selectivity ratio; format: cell-based; conditions: second TABLE 1 (Examples 39-55)
Protocol: RCC4 parental and RCC4 with VHL-reintroduced (RCC4/VHL), SN12C and SN12C-CSCG-VHL shRNA were maintained in DMEM supplemented with 10% FCS.
For 2,3-bis[2-methoxy-4-nitro-5-sulfophenyl]-2H-tetrazolium-5-carboxanilide (XTT) assays, five thousand cells were plated in 96-well plates. The next day, vehicle (DMSO) or drug was added by serial dilution. Four days later, media were aspirated, XTT solution (0.3 mg/ml of XTT (Sigma), 2.65 mg/ml N-methyl dibenxopyrazine methyl sulfate (Simga) in phenol red-free media) was added, and the plates were incubated at 37° C. for 1-2 hours. Metabolism of XTT was quantified by measuring the absorbance at 450 nm. IC50s were calculated using linear interpolation. For clonogenic survival assays, three hundred cells were plated per 60 mm tissue culture dish. The cells were allowed to attach overnight and then treated with vehicle or drug for 14 days. Colonies were fixed and stained with crystal violet (0.1% crystal violet in 95% ethanol). All conditions were measured in triplicate and each experiment was done in duplicate or triplicate. To determine necrosis, cells were treated with drug for a given time point. Media and cells were collected, centrifugated, and resuspended in 0.4% trypan blue (Invitrogen). Live and dead cells were counted on a hematocytometer.
The designation A reflects an IC50 of <1 nM; B reflects an IC50 ranging from 1 to 20 nM; and C is an IC50 of >20 nM. The designation “a” reflects a ratio of RCC4/RCC-VHL+ ranging from 1 to ≦10; “b” reflects from 10 to ≦100; “c” reflects a ratio of >100. Compounds 1-29 have an IC50 value of ≦10 μM when tested in the above assay.

Row | melting point | Structure (SMILES) | Ratio (IC50 RCC4 Proficient VHL)/IC50 RCC4 Deficient VHL) (RCC4/VHL)
1 | 248 to 250 °C | Cc1ccc(S(=O)(=O)Cc2nc(-c3ccc(C(=O)Nc4cccnc4)cc3)oc2C)cc1 [Example 1, 4-(5-Methyl-4-{[(4-methylphenyl)sulfonyl]methyl}-1,3-oxazol-2-yl)-N-(3-pyridinyl)benzamide] | 
2 | 229 to 231 °C | Cc1ccc(S(=O)(=O)Cc2nc(-c3ccc(C(=O)Nc4ccncc4)cc3)oc2C)cc1 [Example 2, 4-(5-Methyl-4-{[(4-methylphenyl)sulfonyl]methyl}-1,3-oxazol-2-yl)-N-(4-pyridinyl)benzamide] | 
3 | 195 to 197 °C | Cc1ccc(S(=O)(=O)Cc2nc(-c3ccc(C(=O)N(C)c4cccnc4)cc3)oc2C)cc1 [Example 3, N-Methyl-4-(5-methyl-4-{[(4-methylphenyl)sulfonyl]methyl}-1,3-oxazol-2-yl)-N-(3-pyridinyl)benzamide] | 
4 | 154 to 155 °C | Cc1ccc(S(=O)(=O)Cc2nc(-c3ccc(C(=O)NCc4ccccn4)cc3)oc2C)cc1 [Example 4, 4-(5-Methyl-4-{[(4-methylphenyl)sulfonyl]methyl}-1,3-oxazol-2-yl)-N-(2-pyridinylmethyl)benzamide] | 
5 | 169 to 172 °C | Cc1ccc(S(=O)(=O)Cc2nc(-c3ccc(C(=O)NCc4ccncc4)cc3)oc2C)cc1 [Example 6, 4-(5-Methyl-4-{[(4-methylphenyl)sulfonyl]methyl}-1,3-oxazol-2-yl)-N-(4-pyridinylmethyl)benzamide] | 
6 | 77 to 80 °C | Cc1ccc(S(=O)(=O)Cc2nc(-c3ccc(C(=O)N(C)Cc4cccnc4)cc3)oc2C)cc1 [Example 7, N-Methyl-4-(5-methyl-4-{[(4-methylphenyl)sulfonyl]methyl}-1,3-oxazol-2-yl)-N-(3-pyridinylmethyl)benzamide] | 
7 | 207 to 208 °C | Cc1ccc(S(=O)(=O)Cc2nc(-c3ccc(C(=O)NCCc4cccnc4)cc3)oc2C)cc1 [Example 8, 4-(5-Methyl-4-{[(4-methylphenyl)sulfonyl]methyl}-1,3-oxazol-2-yl)-N-[2-(3-pyridinyl)ethyl]benzamide] | 
8 | 204 to 206 °C | Cc1ccc(S(=O)(=O)Cc2nc(-c3ccc(C(=O)NCc4cnccn4)cc3)oc2C)cc1 [Example 9, 4-(5-Methyl-4-{[(4-methylphenyl)sulfonyl]methyl}-1,3-oxazol-2-yl)-N-(2-pyrazinylmethyl)benzamide] | 
9 | 190 to 192 °C | Cc1ccc(S(=O)(=O)Cc2nc(-c3ccc(C(=O)NCc4nccn4C)cc3)oc2C)cc1 [Example 10, N-[(1-Methyl-1H-imidazol-2-yl)methyl]-4-(5-methyl-4-{[(4-methylphenyl)sulfonyl]methyl}-1,3-oxazol-2-yl)benzamide] | 
10 | 240 to 242 °C | Cc1ccc(S(=O)(=O)Cc2nc(-c3ccc(C(=O)NCc4cncn4C)cc3)oc2C)cc1 [Example 11, N-[(1-Methyl-1H-imidazol-5-yl)methyl]-4-(5-methyl-4-{[(4-methylphenyl)sulfonyl]methyl}-1,3-oxazol-2-yl)benzamide] | 
11 | 196 to 198 °C | Cc1oc(-c2ccc(C(=O)NCc3cccnc3)cc2)nc1CS(=O)(=O)c1ccccc1 [Example 12, 4-[5-Methyl-4-[(phenylsulfonyl)methyl]-1,3-oxazol-2-yl]-N-(3-pyridinylmethyl)benzamide] | 
12 | 220 to 222 °C | Cc1oc(-c2ccc(C(=O)NCc3cccnc3)cc2)nc1CS(=O)(=O)c1ccc(Cl)cc1 [Example 13, 4-(4-{[(4-Chlorophenyl)sulfonyl]methyl}-5-methyl-1,3-oxazol-2-yl)-N-(3-pyridinylmethyl)benzamide] | 
13 | 177 to 180 °C | Cc1oc(-c2ccc(C(=O)NCc3cccnc3)cc2)nc1CS(=O)(=O)c1ccc(C(C)(C)C)cc1 [Example 14, 4-(4-{[(4-tert-Butylphenyl)sulfonyl]methyl}-5-methyl-1,3-oxazol-2-yl)-N-(3-pyridinylmethyl)benzamide] | 
14 | 188 to 190 °C | Cc1cc(C)cc(S(=O)(=O)Cc2nc(-c3ccc(C(=O)NCc4cccnc4)cc3)oc2C)c1 [Example 15, 4-(4-{[(3,5-Dimethylphenyl)sulfonyl]methyl}-5-methyl-1,3-oxazol-2-yl)-N-(3-pyridinylmethyl)benzamide] | 
15 | 224 to 227 °C | Cc1oc(-c2ccc(C(=O)NCc3cccnc3)cc2)nc1CS(=O)(=O)c1ccc(Br)cc1 [Example 16, 4-(4-{[(4-Bromophenyl)sulfonyl]methyl}-5-methyl-1,3-oxazol-2-yl)-N-(3-pyridinylmethyl)benzamide] | 
16 | 179 to 181 °C | Cc1cccc(S(=O)(=O)Cc2nc(-c3ccc(C(=O)NCc4cccnc4)cc3)oc2C)c1 [Example 17, 4-(5-Methyl-4-{[(3-methylphenyl)sulfonyl]methyl}-1,3-oxazol-2-yl)-N-(3-pyridinylmethyl)benzamide] | 

Row | melting point | Structure (SMILES) | Ratio (IC50 RCC4 Proficient VHL)/IC50 RCC4 Deficient VHL) (RCC4/VHL)
17 | 189 to 191 °C | COc1ccc(S(=O)(=O)Cc2nc(-c3ccc(C(=O)NCc4cccnc4)cc3)oc2C)cc1 [Example 18, 4-(4-{[(4-Methoxyphenyl)sulfonyl]methyl}-5-methyl-1,3-oxazol-2-yl)-N-(3-pyridinylmethyl)benzamide] | 
18 | 143 to 145 °C | COc1cccc(S(=O)(=O)Cc2nc(-c3ccc(C(=O)NCc4cccnc4)cc3)oc2C)c1 [Example 19, 4-(5-Methyl-4-{[(3-methoxyphenyl)sulfonyl]methyl}-1,3-oxazol-2-yl)-N-(3-pyridinylmethyl)benzamide] | 
19 | 104 to 108 °C | COc1ccc(S(=O)(=O)Cc2nc(-c3ccc(C(=O)NCc4cccnc4)cc3)oc2C)cc1OC [Example 20, 4-(4-{[(3,4-Dimethoxyphenyl)sulfonyl]methyl}-5-methyl-1,3-oxazol-2-yl)-N-(3-pyridinylmethyl)benzamide] | 
20 | 218 to 220 °C | Cc1oc(-c2ccc(C(=O)NCc3cccnc3)cc2)nc1CS(=O)(=O)c1ccc(F)cc1 [Example 22, 4-(4-{[(4-Fluorophenyl)sulfonyl]methyl}-5-methyl-1,3-oxazol-2-yl)-N-(3-pyridinylmethyl)benzamide] | 
21 | 210 to 215 °C | Cc1oc(-c2ccc(C(=O)NCc3cccnc3)cc2)nc1CS(=O)(=O)c1ccc(N2CCN(C)CC2)cc1 [Example 23, 4-[5-Methyl-4-({[4-(4-methyl-1-piperazinyl)phenyl]sulfonyl}methyl)-1,3-oxazol-2-yl]-N-(3-pyridinylmethyl)benzamide] | 
22 | 208 to 210 °C | Cc1oc(-c2ccc(C(=O)NCc3cccnc3)cc2)nc1CS(=O)(=O)c1ccc(N2CCOCC2)cc1 [Example 24, 4-[5-Methyl-4-({[4-(4-morpholinyl)phenyl]sulfonyl}methyl)-1,3-oxazol-2-yl]-N-(3-pyridinylmethyl)benzamide] | 
23 | 178 to 181 °C | Cc1ccc(S(=O)(=O)Cc2csc(-c3ccc(C(=O)NCc4cccnc4)cc3)n2)cc1 [Example 25, 4-(4-{[(4-Methylphenyl)sulfonyl]methyl}-1,3-thiazol-2-yl)-N-(3-pyridinylmethyl)benzamide] | 
24 | 234 to 237 °C | Cc1oc(-c2ccc(C(=O)NCc3ccccc3)cc2)nc1CS(=O)(=O)c1ccc(Br)cc1 [Example 27, N-Benzyl-4-(4-{[(4-bromophenyl)sulfonyl]methyl}-5-methyl-1,3-oxazol-2-yl)benzamide] | 
25 |  | Cc1oc(-c2ccc(C(=O)NCc3cccnc3)cc2)nc1CS(=O)(=O)C1CCNCC1 [Example 39, 4-(5-Methyl-4-((piperidin-4-ylsulfonyl)methyl)oxazol-2-yl)-N-(pyridin-3-ylmethyl)benzamide] | b (from 10 to ≦100)
26 |  | Cc1oc(-c2ccc(C(=O)NCc3cccnc3)cc2)nc1CS(=O)(=O)C1CCN(C)CC1 [Example 40, 4-(5-Methyl-4-((1-methylpiperidin-4-ylsulfonyl)methyl)oxazol-2-yl)-N-(pyridin-3-ylmethyl)benzamide] | b (from 10 to ≦100)
27 |  | Cc1oc(-c2ccc(C(=O)NCc3cccnc3)cc2)nc1CS(=O)(=O)[C@H]1CC[C@@H](N2CCCC2)CC1 [Example 42] | b (from 10 to ≦100)
28 |  | Cc1oc(-c2ccc(C(=O)NCc3cccnc3)cc2)nc1CS(=O)(=O)[C@H]1CC[C@@H](N2CCCCC2)CC1 [Example 43] | b (from 10 to ≦100)
29 | 226 to 228 °C | O=C(Nc1cccnc1)c1ccc(CNS(=O)(=O)c2ccc(Cl)nc2)cc1 [II-2, 4-({[(6-Chloro-3-pyridinyl)sulfonyl]amino}methyl)-N-(3-pyridinyl)benzamide] | 
30 | 238 to 240 °C | Cc1ncc(S(=O)(=O)NCc2ccc(C(=O)Nc3cccnc3)cc2)n1C [II-6, 4-({[(1,2-Dimethyl-1H-imidazol-5-yl)sulfonyl]amino}methyl)-N-(3-pyridinyl)benzamide] | 
31 | 266 to 269 °C | O=C(Nc1cccnc1)c1ccc(CNS(=O)(=O)c2nnc[nH]2)cc1 [II-7, N-(3-pyridinyl)-4-{[(4H-1,2,4-triazol-3-ylsulfonyl)amino]methyl}benzamide] | 

— US9296732B2, “Substituted benzamides and their uses” (The Board of Trustees of the Leland Stanford Junior …, priority 2012, dated 2016)
